Reference: PubChem BioAssay AID623999 (Broad Institute, 2012)
Results filed as inconclusive are left out. Active and inactive are the calls of the source.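 Rule for the calls: active = inhibition in every test run, with half-maximal concentration at most twice the top tested dose; inconclusive = the separate test runs disagree on their calls; inactive = every test run inactive, including opposite effects.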

The compounds below were run against Cyclin-dependent kinase 5 (Homo sapiens) + Cyclin-dependent kinase 5 activator 1 (Homo sapiens) (UniProt Q00535+Q15078) (assay: inhibitors of human CDK5 activity – biochemical, ADP-Glo luminescence, dry powder samples, selectivity assay for GSK3beta inhibitor project, dose response (AID 623999)). Conditions: CDK5-p25 kinase, histone H1 peptide.
Chain of Cyclin-dependent kinase 5 (Homo sapiens) + Cyclin-dependent kinase 5 activator 1 (Homo sapiens) (Q00535 whole entry, looked up): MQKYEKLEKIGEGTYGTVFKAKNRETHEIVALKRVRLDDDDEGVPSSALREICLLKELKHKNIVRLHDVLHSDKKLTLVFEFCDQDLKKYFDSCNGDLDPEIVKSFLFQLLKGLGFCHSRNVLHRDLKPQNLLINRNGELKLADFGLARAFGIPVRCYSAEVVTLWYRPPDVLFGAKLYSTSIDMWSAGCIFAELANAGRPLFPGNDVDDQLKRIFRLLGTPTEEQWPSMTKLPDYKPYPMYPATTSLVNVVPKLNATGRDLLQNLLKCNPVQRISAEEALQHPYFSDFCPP
Chain of Cyclin-dependent kinase 5 (Homo sapiens) + Cyclin-dependent kinase 5 activator 1 (Homo sapiens) (Q15078 whole entry, looked up): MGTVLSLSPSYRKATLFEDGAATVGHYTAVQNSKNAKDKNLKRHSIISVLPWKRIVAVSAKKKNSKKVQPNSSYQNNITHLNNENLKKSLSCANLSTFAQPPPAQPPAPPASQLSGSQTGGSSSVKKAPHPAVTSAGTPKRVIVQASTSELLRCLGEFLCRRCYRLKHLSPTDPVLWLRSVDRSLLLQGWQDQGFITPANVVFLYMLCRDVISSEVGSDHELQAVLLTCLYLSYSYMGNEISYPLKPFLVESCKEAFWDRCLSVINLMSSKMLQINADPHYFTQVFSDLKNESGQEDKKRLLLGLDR

| Compound | AC50 [µM] |
| --- | --- |
| Cc1[nH]nc2c1C(c1ccccc1C#N)C1=C(CC(C)(C)CC1=O)N2 (centres undefined) | 4.04 |
| Cc1ccccc1C1C2=C(CC(C)(C)CC2=O)Nc2n[nH]c(C)c21 (centres undefined) | 16.5 |
| COc1ccccc1C1C2=C(CCC(C)(C)C2=O)Nc2n[nH]c(C)c21 (centres undefined) | 10.1 |
| Cc1[nH]nc2c1[C@@H](c1ccccc1C(F)(F)F)C1=C(CC(C)(C)CC1=O)N2 | 0.461 |
| COc1ccccc1C1C(C(C)=O)=C(C)Nc2n[nH]c(C)c21 (centres undefined) | 9.55 |
| O=S(=O)(Nc1ccccn1)c1ccc(N=Cc2c(O)[nH]c3ccc4ncsc4c23)cc1 | 0.418 |
| CSc1ccccc1C1C2=C(CC(C)(C)CC2=O)Nc2n[nH]c(C)c21 (centres undefined) | 3.98 |
| CC1(C)CC(=O)C2=C(C1)Nc1n[nH]c(C(F)(F)F)c1C2c1c(F)cccc1F (centres undefined) | 43 |
| CC1(C)CC(=O)C2=C(C1)Nc1n[nH]c(C(F)(F)F)c1C2c1cc(F)ccc1C(F)(F)F (centres undefined) | 8.29 |
| CC1(C)CC(=O)C2=C(C1)Nc1n[nH]c(C(F)(F)F)c1C2c1cc(F)ccc1F (centres undefined) | 47.4 |
| CCc1[nH]nc2c1C(c1ccccc1OC)C1=C(CC(C)(C)CC1=O)N2 (centres undefined) | 2.22 |
| Cc1cccc(C2C3=C(CC(C)(C)CC3=O)Nc3n[nH]c(C)c32)c1 (centres undefined) | 39.7 |
| Cc1[nH]nc2c1C(C)C1=C(CC(C)(C)CC1=O)N2 (centres undefined) | 27.8 |
| CC1(C)CC(=O)C2=C(C1)Nc1n[nH]c(C(F)(F)F)c1C2c1ccc(F)cc1C(F)(F)F (centres undefined) | 22.4 |

Next, values leading:

| AC50 [µM] | Compound |
| --- | --- |
| 2.57 | Cc1[nH]nc2c1C(c1cccc3nonc13)C1=C(CC(C)(C)CC1=O)N2 (centres undefined) |
| 14.5 | Cc1[nH]nc2c1C(C)(c1ccccc1)C1=C(CC(C)(C)CC1=O)N2 (centres undefined) |
| 25.4 | O/N=C/c1cn(-c2ccccc2)nc1-c1ccc(Cl)cc1 |
| 5.88 | COc1ccccc1C1C2=C(CC3(CCCCC3)CC2=O)Nc2n[nH]c(C)c21 (centres undefined) |
| 22.2 | CC1(C)CC(=O)C2=C(C1)Nc1n[nH]c(C(F)(F)F)c1C2c1ccccc1 (centres undefined) |
| 0.841 | Cc1[nH]nc2c1C(c1ccccc1C(F)(F)F)C1=C(CC(C)(C)CC1=O)N2 (centres undefined) |
| 34.6 | COc1ccccc1-c1c2c(nc3n[nH]c(C)c13)CCC2=O |
| 15.1 | COc1ccccc1C1C2=C(CCCC2=O)Nc2n[nH]c(C)c21 (centres undefined) |
| 47.2 | CC1(C)CC(=O)C2=C(C1)Nc1n[nH]c(C(F)(F)F)c1C2c1ccccc1F (centres undefined) |
| 10.9 | Cc1[nH]nc2c1C(c1cccc(C(F)(F)F)c1)C1=C(CC(C)(C)CC1=O)N2 (centres undefined) |
| 6.81 | Cc1[nH]nc2c1C(c1cccc(C#N)c1)C1=C(CC(C)(C)CC1=O)N2 (centres undefined) |
| 5.82 | COc1ccccc1C1C2=C(CC(C)(C)CC2=O)Nc2[nH]ncc21 (centres undefined) |
| 5.1 | Cc1[nH]nc2c1C(c1ccccc1Cl)C1=C(CC(C)(C)CC1=O)N2 (centres undefined) |
| 32.6 | CC1(C)CC(=O)C2=C(C1)Nc1n[nH]c(C(F)(F)F)c1C2c1cc(F)ccc1OC(F)(F)F (centres undefined) |
| 4.84 | COc1ccccc1C1C2=C(CC(C)(C)CC2=O)Nc2n[nH]c(C(C)C)c21 (centres undefined) |

Same assay, conditions: CDK5-p25 kinase, histone H1 peptide, at 46 µM (top of the series)

| Compound | activity change, negative = inhibition |
| --- | --- |
| CN(C)Cc1cn(-c2ccccc2)nc1-c1ccccc1 | inactive |
| CC(C)c1ccc(-c2nn(-c3ccccc3)cc2/C=N/O)cc1 | inactive |
| Cc1[nH]nc2c1C(c1ccc(C(F)(F)F)cc1)C1=C(CC(C)(C)CC1=O)N2 (centres undefined) | inactive |
| COc1ccccc1C1C2=C(CC(C)(C)CC2=O)Nc2onc(C)c21 (centres undefined) | inactive |
| COc1ccc(-c2nn(-c3ccccc3)cc2C(=O)O)cc1 | inactive |
| COc1cccc(-c2nn(-c3ccccc3)cc2/C=N/O)c1 | inactive |
| COc1ccc(-c2nn(-c3ccccc3)cc2CO)cc1 | inactive |
| COc1ccccc1C1C2=C(CC(C)(C)CC2=O)Nc2n[nH]c(C(C)(C)C)c21 (centres undefined) | inactive |
| COc1ccccc1[C@H]1C2=C(CC(C)(C)CC2=O)Nc2n[nH]c(C(F)(F)F)c21 | inactive |

More lines, now with the values ahead:

| activity change, negative = inhibition | Compound |
| --- | --- |
| inactive | Cc1[nH]nc2c1C(C1CCCCC1)C1=C(CC(C)(C)CC1=O)N2 (centres undefined) |
| inactive | O/N=C/c1cn(-c2ccccc2)nc1-c1ccc(F)cc1 |
| inactive | CC(C)COc1ccc(-c2nn(-c3ccccc3)cc2/C=N/O)cc1 |
| inactive | Cc1[nH]nc2c1C(c1ccc(C#N)cc1)C1=C(CC(C)(C)CC1=O)N2 (centres undefined) |
| inactive | COc1ccccc1/C=C1\C(=O)CC(C)(C)CC1=Nc1cc(C(F)(F)F)[nH]n1 |
| inactive | Cc1[nH]nc2nc3c(cc12)C(=O)CC(C)(C)C3 |
| inactive | COc1ccc(-c2nn(-c3ccccc3)cc2C(=O)N(C)C)cc1 |
| inactive | O/N=C/c1cn(-c2ccccc2)nc1-c1ccccc1 |
| inactive | CNC(=O)c1cn(-c2ccccc2)nc1-c1ccc(OC)cc1 |
| inactive | CC1(C)CC(=O)/C(=C\c2ccccc2C(F)(F)F)C(=Nc2cc(C(F)(F)F)[nH]n2)C1 |
| inactive | CC1(C)CC(=O)/C(=C\c2cccc(F)c2C(F)(F)F)C(=Nc2cc(C(F)(F)F)[nH]n2)C1 |
